Measured values from patent US7605280B2, “Anthraquinone and its derivatives” (Biostatus Limited, priority 1998, dated 2009).
Like-named read-outs stand apart in the source and are kept apart here. Values belong to the molecule of their own block, whether it stands above or below them.

Columns and labels:
[1] = system: human B cell lymphoma cell line; test: Dual laser flow cytometry of DRAQ5NO with Annexin V-FITC (Cytometer D); type: cell-based; details: 50 μM DRAQ5NO, 633 nm excitation, FL4-H
Excerpt: The system was a FACS Vantage cell sorter (Becton Dickinson Inc., Cowley, UK) incorporating a Coherent Enterprise II laser simultaneously emitting at multiline UV (350-360 nm range) and 488 nm wavelengths with the beams made non-colinear using dichroic separators. Beam-combining optics were used to align the UV beam with that emitted by a Spectra Physics 127-35 helium-neon laser (max 35 mW output) emitting at 633 nm with a temporal separation of about 25 μsec from that of the primary 488 nm beam. Forward light scatter, 90° light scatter and fluorescence emissions were collected for 1×10^4 cells using the forward light scatter parameter as the master signal from the primary 488 nm beam, while side scatter was collected through a 488/10 nm bandpass filter. The analysis optics were: i) primary beam-originating signals analysed at FL1 (FITC filter; barrier filter of 530/30 nm) after transmission at SP610 and SP560 dichroics, or at FL2 (barrier filters of 585/42 nm or 575/26 nm) after transmission at SP610 and reflection at SP560 dichroics, or at FL3 (barrier filter of LP715 nm) after reflection at a SP610 dichroic; ii) delayed beam-originating signals analysed at FL4 (barrier filter of LP695 nm) or at FL5 (barrier filter of DF424/44 nm) after transmission or reflection at a LP640 dichroic respectively. Forward and 90° light scatter, were analysed to exclude any cell debris. […]

[2] = previously published spectra, normalised; cited from earlier work
[3] = Spectral analysis: absorbance and fluorescence spectra; type: physicochemical; details: DNA binding buffer, emission 530 nm
Description: Absorbance spectra were obtained using a Perkin-Elmer Lambda 16 UV spectrometer and a 10 μM solution of agent dissolved in dichloromethane and measured in a 1 cm path length quartz-silica cuvette. Fluorescence spectra for a 0.8 ml solution of 20 μM DRAQ5 in a 1 cm path length semi-micro quartz silica cuvette were determined by exciting at 647 nm wavelength or monitoring emission at 670 nm wavelength. Fluorescence measurements were made on a Perkin Elmer LS50 spectrofluorometer with slit widths set at 10 nm. The spectrofluorometer was equipped with a red-sensitive photomultiplier tube (PMT; type R928; Hamamatsu Photonics KK, Japan). Data were accumulated for four scans for each condition and exported into a spreadsheet program to correct values for the buffer control and to determine emission maxima. DNA-DRAQ5 fluorescence was measured by the addition of microlitre volumes of concentrated calf thymus DNA solutions to the cuvette with mixing. Both agent and DNA were prepared in DNA binding buffer (0.05 M sodium phosphate, pH 6.2, 0.05 M NaCl, 0.001 M EDTA; 3). The spectra shown were corrected for the buffer background and not for the spectral sensitivity of the PMT. Rhodamine 123 spectra were generated in DNA binding buffer using either 488/5 nm excitation or monitoring emission at 530/5 nm. […]

Molecule: C[N+](C)([O-])CCNc1ccc(O)c2c1C(=O)c1c(O)ccc(NCC[N+](C)(C)[O-])c1C2=O [DRAQ5N]
level of DRAQ5NO staining in stage 1 populations (intact viable cells) [1]: low level | level of DRAQ5NO staining in stage 3 cells (late stage apoptotic/dead cells) [1]: increased level

Molecule: Texas Red
Exλmax [2]: 596 nm

Molecule: fluorescein isothiocyanate [FITC]
Exλmax [2]: 490 nm

Exλmax [3]: 511 nm
Molecule: rhodamine 123
